Structures can show the parent of a compound that is named as a salt. Where two headings read alike, the source gives them in different places.
Key:
SGK1 = biological target: T1, SGK1 (Homo sapiens, UniProt O00141, S422D); experiment: SGK1 protein kinase assay; type: biochemical; conditions: for remaining activity at 10 µM: 10 μM compound; for residual kinase activity SGK1: 1 μm compound; for remaining activity at 1 µM: 1 μM compound
T1 construct: All protein kinases were of human origin and encoded full length proteins, unless indicated otherwise; made in house
T1 sequence (O00141 60-431 S422D limits assumed): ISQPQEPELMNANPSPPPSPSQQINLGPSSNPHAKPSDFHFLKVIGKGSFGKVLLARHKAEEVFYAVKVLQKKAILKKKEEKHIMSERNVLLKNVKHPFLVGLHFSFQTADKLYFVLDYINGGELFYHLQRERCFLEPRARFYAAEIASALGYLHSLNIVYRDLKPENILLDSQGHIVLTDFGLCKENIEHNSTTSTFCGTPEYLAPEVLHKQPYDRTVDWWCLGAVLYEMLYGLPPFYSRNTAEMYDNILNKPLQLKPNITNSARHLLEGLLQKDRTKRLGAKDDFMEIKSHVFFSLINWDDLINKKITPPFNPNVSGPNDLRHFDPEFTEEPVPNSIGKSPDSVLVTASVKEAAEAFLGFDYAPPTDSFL
Excerpt: (§1) All protein kinases were of human origin and encoded full length proteins, unless indicated otherwise. They were either expressed as glutathione S-transferase (GST) fusion proteins in Escherichia Coli or as hexahistidine (His6)-tagged proteins in insect Sf21 cells. GST fusion proteins were purified by affinity chromatography on glutathione-Sepharose, and His6-tagged proteins on nickel/nitriloacetate-agarose. The procedures for expressing some of the protein kinases used herein have been detailed previously.^8,9 The following sections outline the DNA vectors synthesised and the procedures used to express and purifying protein kinases that have not been reported previously.
(§2) All assays (25.5 μl) were carried out at room temperature (21° C.) and were linear with respect to time and enzyme concentration under the conditions used. Assays were performed for 30 min using Multidrop Micro reagent dispensers (Thermo Electron Corporation, Waltham, Mass. 02454, USA) in a 96-well format. The concentration of magnesium acetate in the assays was 10 mM and the [γ-33P] ATP (800 cpm/pmol) was used at 5, 20 or 50 μM as indicated, in order to be at or below the Km for ATP for each enzyme. Protein kinases assayed at 5 μM ATP were: —ERK1, ERK8, PKBα, MARK3, Aurora C. Protein kinases assayed at 20 μM ATP were: —JNK1, PDK1, CHK1, CHK2, CDK2 and Aurora B. Protein kinases assayed at 50 μM ATP were: —MNK2, IKKepsilon and TBK1.
(§3) The assays were initiated with MgATP, stopped by addition of 5 μl of 0.5 M orthophosphoric acid and spotted on to P81 filterplates using a unifilter harvester (PerkinElmer, Boston, Mass. 02118, USA). The IC50 values of inhibitors were determined after carrying out assays at 10 different concentrations of each compound.
(§4) Unless stated otherwise, enzymes were diluted in 50 mM Tris/HCl pH 7.5, 0.1 mM EGTA, 1 mg/ml BSA, 0.1% (v/v) 2-mercaptoethanol and assayed in 50 mM Tris/HCl pH 7.5, 0.1 mM EGTA, 0.1% (v/v) 2-mercaptoethanol.

DYRK3 = biological target: T2, DYRK3 (Homo sapiens, UniProt O43781); experiment: DYRK3 protein kinase assay; type: biochemical; conditions: for remaining activity at 10 µM: 10 μM compound; for residual kinase activity DYRK3: 1 μm compound; for remaining activity at 1 µM: 1 μM compound
T2 construct: All protein kinases were of human origin and encoded full length proteins, unless indicated otherwise; made in house
T2 sequence (O43781 1-588): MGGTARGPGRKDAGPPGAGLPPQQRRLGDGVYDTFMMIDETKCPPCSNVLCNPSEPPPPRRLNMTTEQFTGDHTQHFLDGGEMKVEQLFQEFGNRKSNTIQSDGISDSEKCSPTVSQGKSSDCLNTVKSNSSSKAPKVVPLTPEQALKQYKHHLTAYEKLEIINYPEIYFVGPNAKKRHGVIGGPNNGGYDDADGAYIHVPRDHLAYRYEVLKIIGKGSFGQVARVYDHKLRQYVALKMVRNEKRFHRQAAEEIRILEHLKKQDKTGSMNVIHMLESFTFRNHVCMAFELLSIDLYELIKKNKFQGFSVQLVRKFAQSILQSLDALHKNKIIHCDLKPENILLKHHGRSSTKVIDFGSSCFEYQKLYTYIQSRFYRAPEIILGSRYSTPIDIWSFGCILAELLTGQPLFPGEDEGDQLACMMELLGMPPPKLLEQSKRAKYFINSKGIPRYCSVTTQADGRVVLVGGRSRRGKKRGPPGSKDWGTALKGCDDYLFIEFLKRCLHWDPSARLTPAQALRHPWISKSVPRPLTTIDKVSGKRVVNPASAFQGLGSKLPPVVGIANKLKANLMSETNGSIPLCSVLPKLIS
Excerpt: as §1, §2, §3, §4

AMPK = AMPK protein kinase assay; type: biochemical, human; conditions: for residual kinase activity: AMPK
Excerpt: as §1, §2, §3, §4

EPH A2 = biological target: T3, EPH A2 (Homo sapiens, UniProt P29317); experiment: EPH A2 protein kinase assay; type: biochemical; conditions: for remaining activity at 10 µM: 10 μM compound; for residual kinase activity EPH A2: 1 μm compound; for remaining activity at 1 µM: 1 μM compound
T3 construct: All protein kinases were of human origin and encoded full length proteins, unless indicated otherwise; made in house
T3 sequence (P29317 591-976 limits assumed): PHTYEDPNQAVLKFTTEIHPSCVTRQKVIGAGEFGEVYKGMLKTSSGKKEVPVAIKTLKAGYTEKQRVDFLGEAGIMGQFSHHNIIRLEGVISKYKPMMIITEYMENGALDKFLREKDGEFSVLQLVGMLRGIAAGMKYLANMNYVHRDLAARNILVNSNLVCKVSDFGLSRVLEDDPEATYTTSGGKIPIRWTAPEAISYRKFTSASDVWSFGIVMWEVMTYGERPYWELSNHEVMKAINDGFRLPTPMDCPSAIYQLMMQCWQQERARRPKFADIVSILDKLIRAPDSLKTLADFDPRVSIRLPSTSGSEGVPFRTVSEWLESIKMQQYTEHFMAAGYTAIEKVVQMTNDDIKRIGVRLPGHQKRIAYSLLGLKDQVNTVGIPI
Excerpt: as §1, §2, §3, §4

[1] = read-out: residual kinase activity SGK1
[2] = read-out: residual kinase activity DYRK3
[3] = read-out: residual kinase activity EPH A2
[4] = SGK1, read-out: residual kinase activity
[5] = DYRK3, read-out: residual kinase activity
[6] = EPH A2, read-out: residual kinase activity

O=C(NCCCNc1nc(Nc2cccc(F)c2)ncc1Br)C1CCC1 [Compound A, cyclobutanecarboxylic acid {3-[5-bromo-2-(3-fluoro-phenylamino)-pyrimidin-4-ylamino]-propyl}-amide, reference compound]
remaining activity at 10 µM (SGK1; [1]): 18%
residual kinase activity SGK1 (SGK1): 59%
remaining activity at 10 µM (DYRK3; [2]): 7%
residual kinase activity DYRK3 (DYRK3): 33%
residual kinase activity AMPK (AMPK; 10 μM compound): 2%
residual kinase activity AMPK (AMPK; 1 μm compound): 4%
remaining activity at 10 µM (EPH A2; [3]): 60%
residual kinase activity EPH A2 (EPH A2): 87%

O=C(NCCCNc1nc(Nc2cccc(F)c2)ncc1C1CC1)C1CCC1 [Example 23, Cyclobutanecarboxylic acid {3-[5-cyclopropyl-2-(3-fluoro-phenylamino)-pyrimidin-4-ylamino]-propyl}-amide]
remaining activity at 10 µM (SGK1; [1]): 64%
residual kinase activity SGK1 (SGK1): 100%
remaining activity at 1 µM (SGK1; [4]): 100%
remaining activity at 10 µM (SGK1; [4]): 64%
remaining activity at 10 µM (DYRK3; [2]): 36%
residual kinase activity DYRK3 (DYRK3): 78%
remaining activity at 1 µM (DYRK3; [5]): 78%
remaining activity at 10 µM (DYRK3; [5]): 36%
residual kinase activity AMPK (AMPK; 10 μM compound): 8%
residual kinase activity AMPK (AMPK; 1 μm compound): 45%
residual kinase activity (AMPK; 1 μM compound): 45%
residual kinase activity (AMPK; 10 μM compound): 8%
remaining activity at 10 µM (EPH A2; [3]): 71%
residual kinase activity EPH A2 (EPH A2): 71%
remaining activity at 1 µM (EPH A2; [6]): 71%
remaining activity at 10 µM (EPH A2; [6]): 71%

O=C(NCCCNc1nc(Nc2cccc(N3CCCC3=O)c2)ncc1C1CC1)c1cccs1 [Example 47, Thiophene-2-carboxylic acid (3-{5-cyclopropyl-2-[3-(2-oxo-pyrrolidin-1-yl)-phenylamino]-pyrimidin-4-ylamino}-propyl)-amide. Hydrochloride salt]
remaining activity at 1 µM (SGK1; [4]): 71%
remaining activity at 10 µM (SGK1; [4]): 59%
remaining activity at 1 µM (DYRK3; [5]): 73%
remaining activity at 10 µM (DYRK3; [5]): 33%
residual kinase activity (AMPK; 1 μM compound): 77%
residual kinase activity (AMPK; 10 μM compound): 30%
remaining activity at 1 µM (EPH A2; [6]): 47%
remaining activity at 10 µM (EPH A2; [6]): 76%

O=C(NCCCNc1nc(Nc2cccnc2)ncc1C1CC1)c1cccs1 [Example 50, Thiophene-2-carboxylic acid {3-[5-cyclopropyl-2-(pyridin-3-ylamino)-pyrimidin-4-ylamino]-propyl}-amide]
remaining activity at 1 µM (SGK1; [4]): 86%
remaining activity at 10 µM (SGK1; [4]): 57%
remaining activity at 1 µM (DYRK3; [5]): 59%
remaining activity at 10 µM (DYRK3; [5]): 22%
residual kinase activity (AMPK; 1 μM compound): 76%
residual kinase activity (AMPK; 10 μM compound): 38%
remaining activity at 1 µM (EPH A2; [6]): 88%
remaining activity at 10 µM (EPH A2; [6]): 73%
